Measured values reported in ChEMBL document CHEMBL1201862, “PubChem BioAssay data set” (2004).
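96-well plates; 48 h exposure; 5 concentrations. Endpoints by linear interpolation between flanking doses. Not reached: highest tested concentration assigned. Abbreviation: GI50, concentration required for 50% inhibition of growth.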 Activity calls are given as the source filed them. No stated cut-off is given here; in the data, active = GI50 up to about 1.1 µM and inactive = higher.

What was measured:
Assay in all cases: DTP human tumour cell line panel, 48 h
CCRF-CEM = system: CCRF-CEM
HOP-18 = system: HOP-18
OVCAR-8 = system: OVCAR-8
OVCAR-5 = system: OVCAR-5
LOX IMVI = system: LOX IMVI
A549 = system: A549
HOP-62 = system: HOP-62
TK-10 = system: TK-10
EKVX = system: EKVX
SK-MEL-5 = system: SK-MEL-5
Malme-3M = system: Malme-3M
HCT-15 = system: HCT-15
MOLT-4 = system: MOLT-4
SW-620 = system: SW-620
IGROV-1 = system: IGROV-1
RPMI-8226 = system: RPMI-8226
A498 = system: A498
PC-3 = system: PC-3
BT-549 = system: BT-549
NCI/ADR-RES = system: NCI/ADR-RES

Row | SMILES | GI50 (CCRF-CEM) | GI50 (HOP-18) | GI50 (OVCAR-8) | GI50 (OVCAR-5) | GI50 (LOX IMVI) | GI50 (A549) | GI50 (HOP-62) | GI50 (TK-10) | GI50 (EKVX) | GI50 (SK-MEL-5) | GI50 (Malme-3M) | GI50 (HCT-15) [µM] | GI50 (MOLT-4) | GI50 (SW-620) | GI50 (IGROV-1) | GI50 (RPMI-8226) | GI50 (A498) | GI50 (PC-3) | GI50 (BT-549) | GI50 (NCI/ADR-RES)
1 | O=C(CO)CC(=O)C(=O)Nc1ccccc1 | > 100 µM (inactive) | > 100 µM (inactive) | > 100 µM (inactive) | > 100 µM (inactive) | > 100 µM (inactive) | > 100 µM (inactive) | > 100 µM (inactive) | > 100 µM (inactive) | > 100 µM (inactive) | > 100 µM (inactive) | > 100 µM (inactive) | > 100 | > 100 µM (inactive) | > 100 µM (inactive) | > 100 µM (inactive) |  |  |  |  | 
2 | O=[N+]([O-])c1cc(Cl)ccc1S(=O)(=O)c1ccc(Cl)cc1[N+](=O)[O-] | 24.1 µM (inactive) | 16.7 µM (inactive) | 16 µM (inactive) | 19.5 µM (inactive) | 16.1 µM (inactive) | 25.4 µM (inactive) | 21.3 µM (inactive) | 17.6 µM (inactive) |  | 14.6 µM (inactive) | 13.5 µM (inactive) | 17.3 | 25 µM (inactive) | 18.5 µM (inactive) | 15.9 µM (inactive) | 29.6 µM (inactive) |  |  |  | 
3 | Clc1ccc2c(c1)C1C(CO2)C(c2ccccc2)=NN1c1ccccc1 (centres undefined) | 24.9 µM (inactive) | 1.07 µM (active) | 28.6 µM (inactive) | > 100 µM (inactive) | > 10 µM (inactive) | 32.7 µM (inactive) | 37 µM (inactive) | 82.8 µM (inactive) | 11.8 µM (inactive) |  | 43 µM (inactive) |  | 22 µM (inactive) | 39.7 µM (inactive) | 22.9 µM (inactive) | 12.4 µM (inactive) | > 100 µM (inactive) |  |  | 
4 | Cc1nnc(N/N=C(/C(=O)C(C#N)c2ccc(Cl)cc2)C(C#N)c2ccc(Cl)cc2)n1N (centres undefined) | 35.6 µM (inactive) | 16.4 µM (inactive) | 20 µM (inactive) | 18.5 µM (inactive) | 18.6 µM (inactive) | 20.1 µM (inactive) | 16.6 µM (inactive) | 20 µM (inactive) | > 10 µM (inactive) | 16 µM (inactive) | 19.4 µM (inactive) | 19.7 | 31.7 µM (inactive) | 18.8 µM (inactive) |  | 16.5 µM (inactive) |  |  |  | 
5 | C=C(C)C1CC2C(C)=C(OC(C)=O)C1n1c(=O)c3cc4ccccc4cc3c(=O)n12 (centres undefined) |  | > 100 µM (inactive) | > 68.7 µM (inactive) | > 100 µM (inactive) | > 84.3 µM (inactive) | > 72.3 µM (inactive) | > 100 µM (inactive) | > 100 µM (inactive) | 64.1 µM (inactive) | 87.3 µM (inactive) | > 89.3 µM (inactive) | 57.5 | 32.7 µM (inactive) | > 71.4 µM (inactive) | > 77.1 µM (inactive) | 36 µM (inactive) | > 84.5 µM (inactive) |  |  | 
6 | Cc1ccc([N+](=O)[O-])cc1S(=O)(=O)Nc1ccc(C2=NOC(c3ccccc3O)C2)cc1 (centres undefined) | 8.93 µM (inactive) |  | 31.2 µM (inactive) | 33.4 µM (inactive) | 9.95 µM (inactive) | 4.97 µM (inactive) | 5.12 µM (inactive) | 18.3 µM (inactive) | 17.1 µM (inactive) | 4.68 µM (inactive) | 3.95 µM (inactive) | 3.44 | 2.76 µM (inactive) | 4.18 µM (inactive) | 7.43 µM (inactive) | 4.26 µM (inactive) | 2.84 µM (inactive) | 4.74 µM (inactive) | 6.27 µM (inactive) | 2.54 µM (inactive)
7 | Brc1ccc(-c2nnc(-c3nn(-c4ccccc4)c4nc5ccccc5nc34)o2)cc1 | 26.1 µM (inactive) | > 100 µM (inactive) | > 100 µM (inactive) | 68.9 µM (inactive) | > 100 µM (inactive) | 96.4 µM (inactive) | > 100 µM (inactive) | > 100 µM (inactive) | > 100 µM (inactive) | 21.3 µM (inactive) |  |  | 33.5 µM (inactive) | > 100 µM (inactive) | > 100 µM (inactive) | 30.5 µM (inactive) |  |  |  | 
8 | COc1cc(/C=C/C(=N\NC(=O)c2ccccc2)c2sc(Nc3ccc(Cl)c(Cl)c3)nc2C)ccc1O | 27.9 µM (inactive) | 24.1 µM (inactive) | 33.3 µM (inactive) | 25.6 µM (inactive) | 19.7 µM (inactive) | 31.7 µM (inactive) | 38.4 µM (inactive) | 37.5 µM (inactive) | 29.6 µM (inactive) |  | 29.4 µM (inactive) | 31.9 | 20.7 µM (inactive) | 40.4 µM (inactive) | 35.6 µM (inactive) |  |  |  |  | 
9 | O=Cc1ccc(OCc2cccc(COc3ccc(/C=N\Nc4ccc([N+](=O)[O-])cc4[N+](=O)[O-])cc3)n2)cc1 | 55.1 µM (inactive) |  | 61 µM (inactive) | > 100 µM (inactive) | > 100 µM (inactive) | > 100 µM (inactive) | 19.6 µM (inactive) | > 100 µM (inactive) | > 100 µM (inactive) | > 100 µM (inactive) | > 100 µM (inactive) | > 100 | 33.9 µM (inactive) | > 100 µM (inactive) | > 100 µM (inactive) | > 100 µM (inactive) | > 100 µM (inactive) | > 100 µM (inactive) | > 100 µM (inactive) | > 100 µM (inactive)
10 | Cc1cccc2[nH]c3c(c(O)cc4[nH]c5cccc(C)c5c(=O)c43)c(=O)c12 | > 10 µM (inactive) |  | 6.11 µM (inactive) | > 10 µM (inactive) | 3.65 µM (inactive) | > 10 µM (inactive) | > 10 µM (inactive) | 5.08 µM (inactive) | 6.53 µM (inactive) | 9.04 µM (inactive) | 6.95 µM (inactive) | > 10 | 3.88 µM (inactive) | 6.11 µM (inactive) | 5.74 µM (inactive) | > 10 µM (inactive) | > 10 µM (inactive) | 4.06 µM (inactive) | 3.63 µM (inactive) | > 10 µM (inactive)
11 | CCCCCCc1cc2cc(C(=O)Nc3cccc(C(F)(F)F)c3)c(=N)oc2cc1O | 0.933 µM (active) |  | 1.26 µM (inactive) | 4.27 µM (inactive) | 1.26 µM (inactive) | 2.06 µM (inactive) | 1.9 µM (inactive) | 4.01 µM (inactive) | 2.94 µM (inactive) | 1.13 µM (inactive) | 1.17 µM (inactive) | 1.43 | 0.586 µM (active) | 2.2 µM (inactive) | 1.19 µM (inactive) | 0.524 µM (active) | 2.92 µM (inactive) | 3.34 µM (inactive) | 1.66 µM (inactive) | 2.06 µM (inactive)
12 | Brc1ccc2c(-c3csc(-c4c[nH]c5ccc(Br)cc45)n3)c[nH]c2c1 | 3.79 µM (inactive) |  | 5.52 µM (inactive) | 2.44 µM (inactive) | 1.94 µM (inactive) | 4.2 µM (inactive) | 12.1 µM (inactive) | 3.94 µM (inactive) | 1.27 µM (inactive) | 3.65 µM (inactive) | 5.4 µM (inactive) | 3.38 | 2.84 µM (inactive) | 3.65 µM (inactive) | 2.43 µM (inactive) | 3.44 µM (inactive) | 3.01 µM (inactive) | 4.81 µM (inactive) | 12.6 µM (inactive) | 4.83 µM (inactive)
